Experimental data taken from patent publication US8519183B2, “Uses for amino acid anticonvulsants” (Research Corporation Technologies, Inc., priority 2000, dated 2013).
“And” between values parts separate entries of the source, which are not always exact repeats. Equal values may be shown once.

How the values were obtained:
[1] = target: glycine strychnine-insensitive site of the NMDA receptor complex (Homo sapiens, UniProt Q05586); test: affinity at the glycine strychnine-insensitive site of the NMDA receptor complex; format: binding
NMDA receptor = NMDA receptor (Mus musculus, UniProt P35438); test: NMDA receptor agonism/antagonism after ICVT administration
Protocol: Test substance was administered ICVT (intracerebroventricular, 30 μg in 5 μl/mouse). The appearance of convulsions/mortality in 2 or more (≧2) of 3 ICR derived male or female mice weighing 22±2 gms within the 5 minutes thereafter would indicate NMDA receptor agonism. At a dose where no significant agonist activity was seen within 5 minutes, ability to inhibit NMDA (60 mg/kg IV)—induced Tonic convulsions/mortality in 2 or more (≧2) of 3 ICR derived male or female mice weighing 22±gms within the following 5 minutes indicated NMDA receptor antagonist activity.

glycineb/D-serine site = target: T1, glycineb/D-serine site (Rattus norvegicus, UniProt P35439); test: threshold extension in rats, reversal by D-serine; format: in vivo; conditions: a glycine agonist, dose dependent fashion
T1 construct: from tissue; host or cells: living rat (in vivo)

[2] = tested on: ICR derived male or female mice; test: Analgesia, Acetic Acid Writhing; format: in vivo; conditions: for No. of Writhes, X ± SEM: group of 3 mice; for No. of Writhes (individual animal): one hour before acetic acid, 5 to 10 minute period; for % Inh.: relative to vehicle control
Text: In the first animal study in Example 1, the degree of pain experienced by the mice after injection by acetic acid is seen by the number of writhes. If the mice experience no pain, there is no writhing.
The protocol is based on the acetic acid writhing test in mice, developed by R. Koster, et al. Fed. Proc, 18, 412 […], and referred to a Koster test and Hunskarai, S., et al., J. Neuroscience Meth. 14: 69-76, 1985.
Reduction in the number of writhes by 50 percent or more (≧50%) per group of animals observed during the 5 to 10 minute period after acetic acid administration, relative to a vehicle treated control group, indicated analgesic activity.

[3] = tested on: ICR derived male or female mice; test: formalin induced hind paw licking; format: in vivo; conditions: for Licking Time, Ave.: 5 mice
Protocol: The degree of pain is determined by measuring the decrease in the amount of time the animal spends licking the formalin-injected paw after administration of the drug.
Reduction of the induced hind paw licking time recorded during the following 20 to 30 minutes period by 50 percent or more (50%) indicated analgesic activity.

[4] = target: T2, serotonin 5-HT1A receptor (Rattus norvegicus, UniProt P19327); test: 5-MeODMT-induced head twitch; format: in vivo, rats
T2 construct: from tissue; host or cells: living Long Evans derived rat (in vivo)
T2 sequence (P19327 1-422): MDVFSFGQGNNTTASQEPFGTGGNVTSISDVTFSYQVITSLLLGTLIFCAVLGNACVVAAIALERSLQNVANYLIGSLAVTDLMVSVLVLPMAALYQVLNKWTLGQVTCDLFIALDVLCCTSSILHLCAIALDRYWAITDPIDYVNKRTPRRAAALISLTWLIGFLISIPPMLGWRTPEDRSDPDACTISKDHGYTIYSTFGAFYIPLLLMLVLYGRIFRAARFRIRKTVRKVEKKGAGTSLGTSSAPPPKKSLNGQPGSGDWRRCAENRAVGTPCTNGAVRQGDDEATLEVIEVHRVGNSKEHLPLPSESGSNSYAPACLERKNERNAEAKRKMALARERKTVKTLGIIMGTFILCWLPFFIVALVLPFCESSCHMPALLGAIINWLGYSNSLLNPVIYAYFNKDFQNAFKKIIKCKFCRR
Protocol: Test substance was administered PO (30 mg/kg) to a group of 3 Long Evans derived male or female rats weighing 150±20 gms one hour before injection of 5-MeODMT (5-methoxy-N,N-dimethyltryptamine, 3 mg/kg IP).

male ICR mice = test: radiant heat induced tail flick response; format: in vivo
Protocol: Groups of 4 male ICR mice weighing 22±2 gms were employed. A dose (30 mg/kg) of test compound dissolved in a vehicle of saline was administered intraperitoneally. The control group received vehicle alone. At pretreatment (0 minute) a focused beam of radiant heat was applied to the middle dorsal surface of the tail to elicit a tail flick response within 6-7.5 seconds in pre-treated animals. A maximum cut-off time of 15 seconds was set. The time required to elicit a pain response was recorded for each animal at 0 and 30 minutes following administration of test compound. Prolongation by 50 percent or more (≧50%) of the time required to elicit a tail flick indicated analgesic activity.

COC[C@@H](NC(C)=O)C(=O)NCc1ccccc1 [Compound I, (R)-2-Acetamido-N-benzyl-3-methoxypropionamide]
IC50 [1]: 5.3 µM | animals showing tremors without convulsions (NMDA receptor; 30 μg/mouse, after intracerebroventricular administration): 2 out of 3 | Agonism (mice with convulsions/mortality within 5 minutes) (NMDA receptor; ICVT 30 μg/mouse, N 3): 0 | Antagonism (mice protected from NMDA 60 mg/kg IV induced tonic convulsions/mortality) (NMDA receptor; ICVT 30 μg/mouse, N 3): 1 | effects on threshold extension in rats, reversal by D-serine (glycineb/D-serine site): can be reversed by D-serine | No. of Writhes, X ± SEM ([2]; 30 mg/kg PO): X ± SEM 15 ± 1.7 | No. of Writhes (individual animal) ([2]; 30 mg/kg PO): 18 and 12 and 15 | % Inh. ([2]; 30 mg/kg PO): 4% | No. of Writhes, X ± SEM ([2]; 100 mg/kg PO): X ± SEM 0 ± 0 | No. of Writhes (individual animal) ([2]; 100 mg/kg PO): 0 | % Inh. ([2]; 100 mg/kg PO): 100% | animals showing slight convulsions ([2]; 100 mg/kg, 15 minutes after oral administration, mice): Compound I, at a dose of 100 mg/kg, 3 out of 3 animals showed slight convulsions 15 minutes after oral administration. | % Inh. ([3]; 30 mg/kg PO): 22% | Licking Time, Ave. ([3]; 30 mg/kg PO): 100 s | % Inh. ([3]; 100 mg/kg PO): 100% | Licking Time, Ave. ([3]; 100 mg/kg PO): 0 s | Licking Time, Indiv. ([3]; 100 mg/kg PO, 20 to 30 minutes after formalin): 0 s | animals showing slight convulsions ([3]; 100 mg/kg, at 15 minutes after oral administration, mice): Compound I, at a dose of 100 mg/kg, 5 out of 5 animals showed slight convulsions at 15 minutes after oral administration. | potentiation of 5-MeODMT-induced heat twitch ([4]; 30 mg/Kg PO): No potentiation | Head Twitch, Ave. ([4]; 30 mg/kg PO, 3 rats): 1 | radiant heat induced tail flick response (in words) (male ICR mice; 30 mg/Kg): unaffected | % Inh. (male ICR mice; 30 mg/kg IP): 0% | Response Time 30 Min. (individual animal) (male ICR mice; 30 mg/kg IP, 30 minutes after administration, cut-off 15 seconds): 5.8 and 5.0 and 6.0 and 6.2 | Response Time 30 Min., X (male ICR mice; 30 mg/kg IP, mean of 4 mice): 5.8 | Response Time 0 Min., X (male ICR mice; 30 mg/kg IP, mean of 4 mice, pretreatment): 6.7 | Response Time 0 Min. (individual animal) (male ICR mice; 30 mg/kg IP, pretreatment (0 minute)): 6.4 (2×) and 7.3 and 6.5
